# In ChEMBL document CHEMBL1201862, “PubChem BioAssay data set” (2004):
# The source made the active and inactive calls. For most assays here, no stated cut-off is given here; in the data, actives have a measured EC50 and inactives only a lower limit.
# Assays:
# [1] = target: T1, Cytochrome P450 3A4 (Homo sapiens, UniProt P08684); details: Potency
# [2] = target: T2, RNA-binding protein pos-1 (Caenorhabditis elegans, UniProt G5EF15); assay: inhibitors of POS-1/mex-3 RNA binding, dose response, biochemical, fluorescence polarization (AID 1964);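 further: purified POS-1 fused to maltose binding protein made in E. coli; potency of compounds blocking POS-1 binding to fluorescent RNA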
# T2 sequence (G5EF15 whole entry): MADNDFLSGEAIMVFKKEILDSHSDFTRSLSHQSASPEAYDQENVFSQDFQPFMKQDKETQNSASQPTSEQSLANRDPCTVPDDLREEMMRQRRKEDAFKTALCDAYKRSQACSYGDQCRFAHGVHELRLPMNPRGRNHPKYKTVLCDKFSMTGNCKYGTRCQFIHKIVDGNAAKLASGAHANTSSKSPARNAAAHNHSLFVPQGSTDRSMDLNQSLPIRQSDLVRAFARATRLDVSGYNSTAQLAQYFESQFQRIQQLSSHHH
# [3] = target: T3, Zinc finger protein mex-5 (Caenorhabditis elegans, UniProt Q9XUB2); assay: MEX-5/TCR-2 RNA interaction inhibitors, dose response, biochemical, C. elegans, fluorescence polarization (AID 1960)
# T3 sequence (Q9XUB2 whole entry): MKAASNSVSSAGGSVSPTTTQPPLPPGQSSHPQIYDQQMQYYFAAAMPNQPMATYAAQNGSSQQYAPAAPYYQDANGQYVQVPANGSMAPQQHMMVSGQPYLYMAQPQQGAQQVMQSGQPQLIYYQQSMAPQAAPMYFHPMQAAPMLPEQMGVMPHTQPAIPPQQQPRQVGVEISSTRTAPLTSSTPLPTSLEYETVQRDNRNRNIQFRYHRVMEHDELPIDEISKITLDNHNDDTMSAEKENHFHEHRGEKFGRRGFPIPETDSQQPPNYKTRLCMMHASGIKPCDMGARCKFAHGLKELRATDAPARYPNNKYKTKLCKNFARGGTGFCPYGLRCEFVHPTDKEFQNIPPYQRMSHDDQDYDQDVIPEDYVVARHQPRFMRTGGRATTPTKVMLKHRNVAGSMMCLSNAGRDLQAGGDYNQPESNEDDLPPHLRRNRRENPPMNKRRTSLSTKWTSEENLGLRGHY
# [4] = inhibitors of firefly luciferase expression or activity, dose response, H4 neuroglioma cells, luminescence (AID 1990); type: functional, cell-based
# [5] = Luminescence Cell-Based Dose Response HTS to Identify Inhibitors of 5'UTR Stem-Loop Driven Prion Protein mRNA Translation in H4 Neuroglioblastoma Cells. [Related pubchem assays: 1827 (Project Summary), 1813 (Primary HTS)]; type: functional
# [6] = inhibitors of SNCA 5'UTR-driven reporter translation, confirmation, H4 neuroglioma cells, luminescence (AID 1988); type: functional, cell-based
# [7] = target: T4, Replicative DNA helicase DnaB (Mycobacterium tuberculosis, UniProt P9WMR3); assay: DnaB intein splicing inhibitors, dose response, biochemical, cell-free fluorescence (AID 449749); type: functional
# T4 sequence (P9WMR3 whole entry): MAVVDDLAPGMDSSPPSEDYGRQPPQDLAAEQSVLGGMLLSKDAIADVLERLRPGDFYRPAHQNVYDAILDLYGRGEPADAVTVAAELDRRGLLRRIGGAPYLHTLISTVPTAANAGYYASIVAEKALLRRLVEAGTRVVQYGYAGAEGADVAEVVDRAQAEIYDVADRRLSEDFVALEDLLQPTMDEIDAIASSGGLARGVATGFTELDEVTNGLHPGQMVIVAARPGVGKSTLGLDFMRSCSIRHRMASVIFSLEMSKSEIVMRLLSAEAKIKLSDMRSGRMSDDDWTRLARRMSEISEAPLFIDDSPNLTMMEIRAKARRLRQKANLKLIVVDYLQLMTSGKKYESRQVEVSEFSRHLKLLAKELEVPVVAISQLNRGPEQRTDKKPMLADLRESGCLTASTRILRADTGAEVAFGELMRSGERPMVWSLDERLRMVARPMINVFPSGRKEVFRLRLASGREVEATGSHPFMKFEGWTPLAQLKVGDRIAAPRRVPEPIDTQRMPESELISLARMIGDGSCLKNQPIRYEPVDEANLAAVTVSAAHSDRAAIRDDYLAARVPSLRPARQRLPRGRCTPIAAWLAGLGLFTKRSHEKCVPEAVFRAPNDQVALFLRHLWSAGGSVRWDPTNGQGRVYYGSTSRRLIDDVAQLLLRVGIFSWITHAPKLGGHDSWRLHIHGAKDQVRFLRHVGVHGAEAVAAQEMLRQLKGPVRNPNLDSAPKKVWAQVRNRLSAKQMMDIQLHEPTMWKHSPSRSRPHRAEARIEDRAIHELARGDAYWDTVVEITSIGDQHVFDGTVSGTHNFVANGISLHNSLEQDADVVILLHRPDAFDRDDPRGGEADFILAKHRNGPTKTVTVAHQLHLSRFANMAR
# [8] = target: T5, Protein RecA (Mycobacterium tuberculosis, UniProt P9WHJ3); assay: Fluorescence Cell-Free Homogeneous Dose Retest to Identify Inhibitors of RecA-Intein Splicing Activity. [Related pubchem assays (depositor defined):AID2097, AID2223, AID489010, AID492950]; type: functional
# T5 sequence (P9WHJ3 whole entry): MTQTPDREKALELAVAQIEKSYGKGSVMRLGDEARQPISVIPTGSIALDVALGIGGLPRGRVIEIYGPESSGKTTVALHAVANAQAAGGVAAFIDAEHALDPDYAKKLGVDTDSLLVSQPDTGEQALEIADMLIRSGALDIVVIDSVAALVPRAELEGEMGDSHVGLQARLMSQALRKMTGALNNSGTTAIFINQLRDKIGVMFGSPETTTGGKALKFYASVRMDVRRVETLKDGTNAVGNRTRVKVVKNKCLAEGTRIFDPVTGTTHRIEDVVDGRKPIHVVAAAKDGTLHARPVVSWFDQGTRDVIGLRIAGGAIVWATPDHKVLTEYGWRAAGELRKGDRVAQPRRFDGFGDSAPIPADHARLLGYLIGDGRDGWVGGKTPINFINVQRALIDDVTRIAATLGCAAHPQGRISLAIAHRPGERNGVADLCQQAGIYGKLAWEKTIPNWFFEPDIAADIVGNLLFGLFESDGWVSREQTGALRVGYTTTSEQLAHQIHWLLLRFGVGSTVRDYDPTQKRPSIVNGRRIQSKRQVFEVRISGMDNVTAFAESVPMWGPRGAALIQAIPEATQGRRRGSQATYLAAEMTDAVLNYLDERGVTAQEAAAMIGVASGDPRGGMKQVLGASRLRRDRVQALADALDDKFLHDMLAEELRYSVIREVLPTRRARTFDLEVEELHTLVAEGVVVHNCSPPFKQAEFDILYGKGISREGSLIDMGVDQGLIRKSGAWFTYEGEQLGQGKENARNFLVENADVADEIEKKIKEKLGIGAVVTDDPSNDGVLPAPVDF
# [9] = test system: H9c2; assay: cells; type: functional, cell-based; details: Rattus norvegicus, H9c2, Myocardium;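 further: confirmatory concentration-response retest of ultra-high-throughput screening hits for modulation of myocardial damage; cell death induced by hydrogen peroxide oxidative stress; compound pretreatment for 60 min then peroxide exposure for 2 h; potency is for protecting the cells against peroxide damage rather than for killing them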
# [10] = inhibitors of intracellular T. cruzi replication, confirmation, NIH3T3 host cells, beta-gal luminescence (AID 2044); type: functional, cell-based;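 further: intracellular parasites grown in NIH/3T3 mouse fibroblasts as host cells; luminescent beta-galactosidase reporter signal from transgenic T. cruzi replicating inside host cells; inhibitors lower the luminescence signal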
# [11] = cytotoxicity toward NIH3T3 fibroblasts, dose response, counter-screen, cell-based, ATP luminescence, mouse fibroblasts (AID 2010); type: functional;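 further: cells exposed to compound for about 90 hours before reading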
# [12] = test system: INS1; assay: beta cell apoptosis inhibitors, cytokine rescue, dose response, luminescence, retest (AID 449756); type: functional, cell-based; details: Rattus norvegicus;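 further: cell death triggered by IL-1 beta plus TNF-alpha plus IFN-gamma mixture; protective hits raise ATP signal compared with cytokine alone wells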
# [13] = target: T1, Cytochrome P450 3A4
# [14] = test system: Streptococcus sp. 'group A'; assay: growth inhibition of control SK(-) GAS strain, dose response, counter-screen for streptokinase expression inhibitor project, luminescence, kanamycin, BacTiterGlo, confirmation (AID 1900); type: functional, organism-based
# [15] = target: T6, Streptokinase A (Streptococcus pyogenes serotype M1, UniProt P10520); assay: S. pyogenes streptokinase expression inhibitors, potency, dose response, plasminogen activation absorbance, OD405 (AID 1914); type: functional, Streptococcus pyogenes M1 GAS;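 further: secreted streptokinase activity via plasminogen activation per viability signal from cell pellet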
# T6 sequence (P10520 whole entry): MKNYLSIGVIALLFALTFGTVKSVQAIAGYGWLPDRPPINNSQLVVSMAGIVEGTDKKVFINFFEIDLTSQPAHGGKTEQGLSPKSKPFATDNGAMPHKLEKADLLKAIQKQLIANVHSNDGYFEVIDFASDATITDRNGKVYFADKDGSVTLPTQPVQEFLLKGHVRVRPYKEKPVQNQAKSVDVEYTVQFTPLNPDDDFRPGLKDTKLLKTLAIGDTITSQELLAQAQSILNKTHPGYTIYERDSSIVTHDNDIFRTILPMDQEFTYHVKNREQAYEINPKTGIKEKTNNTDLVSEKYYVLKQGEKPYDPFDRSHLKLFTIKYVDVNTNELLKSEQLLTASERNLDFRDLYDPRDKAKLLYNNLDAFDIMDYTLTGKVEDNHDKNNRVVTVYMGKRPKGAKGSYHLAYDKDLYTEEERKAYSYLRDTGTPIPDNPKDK
# [16] = test system: Streptococcus; assay: Group A Streptococcus viability loss, dose response, counter-screen for streptokinase expression inhibitor project, luminescence, BacTiterGlo (AID 1915); type: functional, organism-based;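 further: potency for reduction of bacterial viability or growth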
# T1 sequence (P08684 whole entry, the tested form may be a part): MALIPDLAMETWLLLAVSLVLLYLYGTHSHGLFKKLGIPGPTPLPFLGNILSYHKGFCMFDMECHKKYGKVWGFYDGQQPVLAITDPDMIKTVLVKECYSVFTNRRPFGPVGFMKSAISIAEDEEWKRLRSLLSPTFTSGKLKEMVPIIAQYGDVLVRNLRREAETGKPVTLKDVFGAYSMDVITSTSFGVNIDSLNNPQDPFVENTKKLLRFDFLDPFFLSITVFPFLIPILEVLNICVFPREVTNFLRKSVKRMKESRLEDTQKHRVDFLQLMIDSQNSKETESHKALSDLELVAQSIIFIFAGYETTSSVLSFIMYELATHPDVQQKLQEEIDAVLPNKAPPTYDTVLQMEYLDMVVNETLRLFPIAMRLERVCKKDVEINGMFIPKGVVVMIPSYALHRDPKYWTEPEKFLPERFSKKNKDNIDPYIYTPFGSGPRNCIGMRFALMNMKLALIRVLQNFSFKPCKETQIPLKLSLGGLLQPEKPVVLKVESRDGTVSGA
smiles,measurement,setting,value
CCC1OC(=O)C(C)[C@@H](O[C@H]2C[C@@](C)(OC)C(O)C(C)O2)C(C)[C@@H](O[C@@H]2OC(C)CC(N(C)C)C2O)[C@@](C)(O)CC(C)C(=O)[C@@H](C)C(O)[C@]1(C)O (some centres not stated),AC50,[1],31.6 µM (inconclusive)
COC(c1ccccc1)C(C)C(OC)C(C)C(OC)C(C)C(C)=O (configuration not stated),AC50,[1],3.98 µM (inconclusive)
COc1cc(C=O)c([N+](=O)[O-])cc1OC,AC50,[1],25.1 µM (inconclusive)
O=C(CCN1C(=O)C2CC=C(Cl)CC2C1=O)N1CCCCC1 (configuration not stated),EC50,[2],29.5 µM (active)
same,EC50,[3],18.1 µM (active)
CCN(CC)C(=O)CSc1nnc2nnc3cc(OC)ccc3n12,EC50,[4],14.9 µM (active)
same,EC50,[2],7.7 µM (active)
same,EC50,[5],> 120 µM (not active)
same,EC50,[3],5.43 µM (active)
same,EC50,[6],10.8 µM (active)
same,AC50,[7],> 380 µM (inactive)
same,EC50,[8],128 µM (active)
O=C(NNC(=O)c1ccccc1O)c1ccco1,EC50,[2],24 µM (active)
same,EC50,[3],19.4 µM (active)
COC(=O)c1cc2ccccn2c2c(C(=O)OC)c(C(=O)OC)cc1-2,IC50,[9],> 79 µM (inactive)
Cc1ccc(S(=O)(=O)N2CCOCC2)cc1NC(=O)CN(C)C1CCS(=O)(=O)C1 (configuration not stated),EC50,[2],> 300 µM (not active)
same,EC50,[3],> 300 µM (not active)
N#Cc1ccc(C23CC4(C2)[C@H](CN(Cc2ccc(C(F)(F)F)cc2)[C@@H]4c2ccccc2)C3c2ccccc2)cc1 (some centres not stated),AC50,[1],25.1 µM (inconclusive)
COC(=O)c1ccc(C23CC4(C2)[C@H](CN(C)[C@@H]4c2ccccc2)C3c2ccccc2)cc1 (some centres not stated),AC50,[1],12.6 µM (inconclusive)
Cc1cc(Nc2nc3ccccc3nc2Cl)n(-c2ccc([N+](=O)[O-])cc2)n1,EC50,[10],2.24 µM (active)
same,EC50,[11],> 60 µM (not active)
same,AC50,[12],8.83 µM (active)
COc1ccc2occ(C(=O)c3coc4ccc(O)c(CN(C)C)c34)c2c1,IC50,[9],> 79 µM (inactive)
Cn1nc(C(=O)Nc2nc(-c3ccccn3)cs2)c2ccccc2c1=O,IC50,[9],> 79 µM (inactive)
CCCCC(=O)Nc1cc(C)c2c(=O)oc3ccccc3c2n1,IC50,[9],> 79 µM (inactive)
CN1CCCc2cc3c(C(F)(F)F)cc(=O)oc3nc21,EC50,[2],24.9 µM (active)
same,EC50,[3],25.7 µM (inconclusive)
Cc1nc(/N=N\c2cc(S(=O)(=O)O)c3cc([N+](=O)[O-])cc(S(=O)(=O)O)c3c2)c(COP(=O)(O)O)c(C=O)c1O,AC50,[1],15.8 µM (inconclusive)
CC(C)CCn1cc[n+](C2=C([N-]S(=O)(=O)c3ccccc3)C(=O)c3ccccc3C2=O)c1,AC50,[12],4.76 µM (active)
Cc1ccc(N2C(=O)/C(=C/c3ccc(CN(CCC#N)S(C)(=O)=O)o3)C(=O)NC2=S)cc1C,EC50,[2],15.5 µM (active)
same,EC50,[3],9.89 µM (active)
same,AC50,[13],22.4 µM (inconclusive)
Cc1cccc(OCCn2c(NC(=O)c3ccco3)nc3ccccc32)c1,EC50,[14],4.74 µM (active)
same,EC50,[15],> 150 µM (not active)
same,EC50,[10],1.69 µM (active)
same,EC50,[11],29.8 µM (active)
same,EC50,[16],7.32 µM (active)
same,IC50,[9],11 µM (active)
Cc1ccc(-c2nnc(O)c3ccccc23)cc1N,IC50,[9],34.5 µM (inactive)
CN(C)S(=O)(=O)c1ccc(NC(=O)COC(=O)Cn2[nH]c(=O)c3ccccc3c2=O)cc1,IC50,[9],> 79 µM (inactive)
C=C1CC[C@@H]2O[C@@]2(C)CC[C@H]2[C@H]1CC2(C)C,AC50,[1],39.8 µM (inconclusive)
N#CC1=C(N)OC2=C(C(=O)CCC2)C12C(=O)N1CCCc3cccc2c31 (configuration not stated),EC50,[2],> 300 µM (not active)
same,EC50,[3],> 300 µM (not active)
Cc1sc(/C=C2\C(=O)ON=C2c2ccccc2)cc1Br,EC50,[2],24.1 µM (inconclusive)
same,EC50,[3],7.46 µM (inconclusive)
Cc1ccc2[nH]c(SCc3nc(O)c4ccccc4n3)nc2c1,IC50,[9],> 79 µM (inactive)
Cc1cc(C2(c3cc(C)c(O)cc3C)OS(=O)(=O)c3ccccc32)c(C)cc1O,AC50,[1],7.94 µM (inconclusive)
Cc1c(OCC(=O)NCCN2CCOCC2)ccc2c1oc(=O)c1ccccc12,IC50,[9],> 79 µM (inactive)
Cc1nc2ccccc2c(=O)[nH]1,IC50,[9],> 79 µM (inactive)
BrC1C(Br)C(Br)C(Br)C(Br)C1Br (configuration not stated),AC50,[1],15.8 µM (inconclusive)
CCCCCCCCCc1ccc(O)cc1 [4-NONYLPHENOL],AC50,[1],31.6 µM (inconclusive)
C=C1CCC(=O)C(C)CCC2C1CC2(C)C (configuration not stated) [DIHYDROCARYOPHYLLEN-5-ONE],AC50,[1],25.1 µM (inconclusive)
